What was measured:
[1] = system: ENR+CD organoids (ISC to Paneth cell differentiation); assay: Primary screen: basal (non-stimulated) lysozyme secretion LYZ.NS, 2.5-D 384-well ENR+CD organoid differentiation; assay type: cell-based, mouse; conditions: primary screen; for Z.LYZ.NS: standard z score
Source text: (§1) High-throughput screening.

ENR+CD organoids = assay: Primary screen: ATP (CellTiter-Glo 3D, CTG) cell number/viability, 2.5-D 384-well ENR+CD organoids; conditions: primary screen; for Z.CTG: standard z score;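 for all read-outs here: compounds given at plating and again on day 3 over a 6-day differentiation from ENR+CV stem-cell-enriched precursors, ATP measured on day 6, plate median as control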
[2] = system: ENR+CD organoids (ISC to Paneth cell differentiation); assay: Primary screen: CCh-stimulated lysozyme secretion LYZ.S, 2.5-D 384-well ENR+CD organoid differentiation; assay type: cell-based, mouse; conditions: primary screen
Source text: as §1

[3] = 1st dose row of the treatment (0.08 uM by row order; dose not reprinted)
[4] = 2nd dose row of the treatment (0.40 uM by row order; dose not reprinted)
[5] = 3rd dose row of the treatment (2.00 uM by row order; dose not reprinted)
[6] = 4th dose row of the treatment (10.00 uM by row order; dose not reprinted)

| Compound | Dose.FC.LYZ.NS ([1]; dose 0.08 uM) | Z.LYZ.NS (standard z score) ([1]; dose 0.08 uM) | Dose.FC.LYZ.NS ([1]; dose 0.40 uM) | Z.LYZ.NS (standard z score) ([1]; dose 0.40 uM) | Dose.FC.LYZ.NS ([1]; dose 2.00 uM) | Z.LYZ.NS (standard z score) ([1]; dose 2.00 uM) | Dose.FC.LYZ.NS ([1]; dose 10.00 uM) | Z.LYZ.NS (standard z score) ([1]; dose 10.00 uM) | Dose.FC.CTG (ENR+CD organoids; dose 0.08 uM) | Z.CTG (standard z score) (ENR+CD organoids; dose 0.08 uM) | Dose.FC.CTG (ENR+CD organoids; dose 0.40 uM) | Z.CTG (standard z score) (ENR+CD organoids; dose 0.40 uM) | Dose.FC.CTG (ENR+CD organoids; dose 2.00 uM) | Z.CTG (standard z score) (ENR+CD organoids; dose 2.00 uM) | Dose.FC.CTG (ENR+CD organoids; dose 10.00 uM) | Z.CTG (standard z score) (ENR+CD organoids; dose 10.00 uM) | Dose.FC.LYZ.S ([2]; dose 0.08 uM) | Dose.FC.LYZ.S ([2]; dose 0.40 uM) | Dose.FC.LYZ.S ([2]; dose 2.00 uM) | Dose.FC.LYZ.S ([2]; dose 10.00 uM) | further results |
| --- | --- | --- | --- | --- | --- | --- | --- | --- | --- | --- | --- | --- | --- | --- | --- | --- | --- | --- | --- | --- | --- |
| COc1cc(N2CCN(C)CC2)ccc1Nc1nccc(-c2cn(C)c3cnccc23)n1 [AZ191] | 0.128 log2 fold change | 1.111 | 0.082 log2 fold change | 0.717 | 0.058 log2 fold change | 0.507 | −0.148 log2 fold change | −1.289 | 0.292 log2 fold change | 0.697 | 0.337 log2 fold change | 0.804 | 0.150 log2 fold change | 0.358 | −0.533 log2 fold change | −1.272 | 0.143 log2 fold change | 0.199 log2 fold change | 0.097 log2 fold change | −0.200 log2 fold change |  |
| (−)-MK 801 Maleate | 0.008 log2 fold change | 0.072 | −0.099 log2 fold change | −0.864 | −0.256 log2 fold change | −2.227 | −0.259 log2 fold change | −2.255 | 0.127 log2 fold change | 0.303 | −0.377 log2 fold change | −0.899 | −0.702 log2 fold change | −1.677 | −0.936 log2 fold change | −2.236 | 0.015 log2 fold change | −0.179 log2 fold change | −0.334 log2 fold change | −0.403 log2 fold change | SSMD.LYZ.NS_Rep (strictly standardized mean difference) [1, 3]: 0.070; SSMD.LYZ.NS_Rep (strictly standardized mean difference) [1, 4]: −0.550; SSMD.LYZ.NS_Rep (strictly standardized mean difference) [1, 5]: −1.315; SSMD.LYZ.NS_Rep (strictly standardized mean difference) [1, 6]: −1.708; SSMD.CTG.Rep (strictly standardized mean difference) (ENR+CD organoids; [3]): 0.442; SSMD.CTG.Rep (strictly standardized mean difference) (ENR+CD organoids; [4]): −1.342; SSMD.CTG.Rep (strictly standardized mean difference) (ENR+CD organoids; [5]): −1.102; SSMD.CTG.Rep (strictly standardized mean difference) (ENR+CD organoids; [6]): −1.696; SSMD.LYZ.S_Rep (strictly standardized mean difference) [2, 3]: 0.116; Z.LYZ.S (standard z score) [2, 3]: 0.099; SSMD.LYZ.S_Rep (strictly standardized mean difference) [2, 4]: −0.976; Z.LYZ.S (standard z score) [2, 4]: −1.159; SSMD.LYZ.S_Rep (strictly standardized mean difference) [2, 5]: −1.187; Z.LYZ.S (standard z score) [2, 5]: −2.160; SSMD.LYZ.S_Rep (strictly standardized mean difference) [2, 6]: −1.768; Z.LYZ.S (standard z score) [2, 6]: −2.604 |
| CC(C)c1cc(-c2n[nH]c(=O)n2-c2ccc3c(ccn3C)c2)c(O)cc1O [Ganetespib (STA-9090)] | −0.141 log2 fold change |  | −0.155 log2 fold change |  | −0.150 log2 fold change |  | −0.136 log2 fold change |  | −1.450 log2 fold change |  | −2.105 log2 fold change |  | −1.721 log2 fold change |  | −1.620 log2 fold change |  | −0.260 log2 fold change | −0.250 log2 fold change | −0.260 log2 fold change | −0.267 log2 fold change | Z.LYZ.NS ([1]; dose 0.08 uM): −1.226; Z.LYZ.NS ([1]; dose 0.40 uM): −1.345; Z.LYZ.NS ([1]; dose 2.00 uM): −1.309; Z.LYZ.NS ([1]; dose 10.00 uM): −1.181; Z.CTG (ENR+CD organoids; dose 0.08 uM): −3.465; Z.CTG (ENR+CD organoids; dose 0.40 uM): −5.027; Z.CTG (ENR+CD organoids; dose 2.00 uM): −4.110; Z.CTG (ENR+CD organoids; dose 10.00 uM): −3.871 |
| CN1CCCCC1Cn1cc(C(=O)c2cc([N+](=O)[O-])ccc2I)c2ccccc21 (stereo not shown) [AM1241] | 0.052 log2 fold change | 0.454 | 0.004 log2 fold change | 0.035 | −0.014 log2 fold change | −0.123 | −0.003 log2 fold change | −0.028 | 0.159 log2 fold change | 0.379 | −0.054 log2 fold change | −0.129 | −0.062 log2 fold change | −0.147 | −0.001 log2 fold change | −0.002 | 0.046 log2 fold change | 0.088 log2 fold change | −0.017 log2 fold change | −0.080 log2 fold change |  |
| Nc1nc(N)c2nc(-c3ccccc3)c(N)nc2n1 [Triamterene] | 0.103 log2 fold change | 0.894 | 0.030 log2 fold change | 0.266 | −0.056 log2 fold change | −0.490 | −0.187 log2 fold change | −1.630 | −0.029 log2 fold change |  | −0.165 log2 fold change |  | −0.101 log2 fold change |  | −0.462 log2 fold change |  | 0.048 log2 fold change | 0.051 log2 fold change | −0.065 log2 fold change | −0.290 log2 fold change |  |
